Measured values taken from patent US20020035061A1, “COMPOSITIONS AND METHODS FOR TREATING INFECTIONS USING CATIONIC PEPTIDES ALONE OR IN COMBINATION WITH ANTIBIOTICS” (priority 1996, published 2002).
Like-named read-outs stand apart in the source and are kept apart here.

Tests used:
P. aeruginosa = format: cell-based; details: for Peptide MIC values: agarose dilution
H. influenzae = assay: Agarose dilution assay (MIC); format: cell-based; details: H. influenzae HIN002
bacterial isolates = assay: microbe, parasite or virus in culture; format: cell-based
[1] = test system: MSSA (Smith, ATCC # 19640); assay: In vivo efficacy, MSSA infection; design: species or system S. aureus; details: formulation D, 60 min post-infection, end of eight day observation
E. coli = format: cell-based; details: for Peptide MIC values: agarose dilution
S. pneumoniae = assay: Agarose dilution assay (MIC); format: cell-based; details: for Peptide MIC values: agarose dilution
E. faecium = format: cell-based
[2] = S. aureus SA014 (also SA014 MRSA)
[3] = S. aureus SA025 (also SA025 MRSA)

With ILKKFPFFPFRRK [MBI 11A1CN] the MIC (P. aeruginosa; P. aeruginosa PA004) was greater than 128 µg/mL, the “Peptide MIC values” (P. aeruginosa; P. aeruginosa ATCC 27853) was greater than 128 µg/mL and the “Peptide MIC values” (P. aeruginosa; P. aeruginosa NCTC 10662) was greater than 128 µg/mL. The MIC (H. influenzae) was greater than 128 µg/mL, the “Peptide MIC Alone” value (bacterial isolates; 3. Ciprofloxacin, S. aureus SA10) was 128 µg/mL and the “Peptide MIC Alone” value (bacterial isolates; 3. Ciprofloxacin, S. aureus SA11) was greater than 128 µg/mL. The “Peptide MIC Alone” value (bacterial isolates; 4. Gentamicin, E. faecium EFM004) was 32 µg/mL, the “Peptide MIC Alone” value (bacterial isolates; 4. Gentamicin, S. aureus SA014 MRSA) was 8 µg/mL and the “Peptide MIC Alone” value (bacterial isolates; 4. Gentamicin, S. epidermidis SE074) was 32 µg/mL. For the same sequence, the “Peptide MIC Alone” value (bacterial isolates; 4. Gentamicin, S. maltophilia SMA019) was greater than 128 µg/mL, the “Peptide MIC Alone” value (bacterial isolates; 4. Gentamicin, S. maltophilia SMA020) was greater than 128 µg/mL and the “Mupirocin MIC + Peptide” value (bacterial isolates; E. coli ECO1) was 10 µg/mL. The “Peptide MIC + Mupirocin” value (bacterial isolates; E. coli ECO1) was 4 µg/mL, the “Peptide MIC Alone” value (bacterial isolates; E. coli ECO1, Mupirocin section) was 32 µg/mL and the “Mupirocin MIC + Peptide” value (bacterial isolates; E. coli SBECO2) was 30 µg/mL. For the same sequence, the “Peptide MIC + Mupirocin” value (bacterial isolates; E. coli SBECO2) was 2 µg/mL, the “Peptide MIC Alone” value (bacterial isolates; E. coli SBECO2, Mupirocin section) was 128 µg/mL and the “Peptide MIC + Vancomycin” value (bacterial isolates; E. faecalis EFS001) was 0.125 µg/mL. For the same sequence, the “Peptide MIC Alone” value (bacterial isolates; E. faecalis EFS001) was 4 µg/mL, the “Vancomycin MIC + Peptide” value (bacterial isolates; E. faecalis EFS001) was 0.5 µg/mL and the “Peptide MIC + Vancomycin” value (bacterial isolates; E. faecalis EFS006) was 0.25 µg/mL. For the same sequence, the “Peptide MIC Alone” value (bacterial isolates; E. faecalis EFS006) was 128 µg/mL, the “Vancomycin MIC + Peptide” value (bacterial isolates; E. faecalis EFS006) was 4 µg/mL and the “Peptide MIC + Vancomycin” value (bacterial isolates; E. faecalis EFS007) was 0.5 µg/mL. The “Peptide MIC Alone” value (bacterial isolates; E. faecalis EFS007) was 128 µg/mL, the “Vancomycin MIC + Peptide” value (bacterial isolates; E. faecalis EFS007) was 2 µg/mL and the “Peptide MIC + Vancomycin” value (bacterial isolates; E. faecalis EFS010) was 2 µg/mL. The “Peptide MIC Alone” value (bacterial isolates; E. faecalis EFS010) was 128 µg/mL, the “Vancomycin MIC + Peptide” value (bacterial isolates; E. faecalis EFS010) was 4 µg/mL and the “Peptide MIC + Vancomycin” value (bacterial isolates; E. faecalis EFS012) was 8 µg/mL. The “Peptide MIC Alone” value (bacterial isolates; E. faecalis EFS012) was 64 µg/mL, the “Vancomycin MIC + Peptide” value (bacterial isolates; E. faecalis EFS012) was 32 µg/mL and the “Peptide MIC + Vancomycin” value (bacterial isolates; E. faecalis EFS014) was 2 µg/mL. The “Peptide MIC Alone” value (bacterial isolates; E. faecalis EFS014) was 4 µg/mL, the “Vancomycin MIC + Peptide” value (bacterial isolates; E. faecalis EFS014) was 1 µg/mL and the “Gentamicin MIC + Peptide” value (bacterial isolates; E. faecium EFM004) was 64 µg/mL. For the same sequence, the “Peptide MIC + Gentamicin” value (bacterial isolates; E. faecium EFM004) was 1 µg/mL, the “Peptide MIC + Vancomycin” value (bacterial isolates; E. faecium EFM004) was 16 µg/mL and the “Peptide MIC Alone” value (bacterial isolates; E. faecium EFM004) was 32 µg/mL. For the same sequence, the “Vancomycin MIC + Peptide” value (bacterial isolates; E. faecium EFM004) was 0.5 µg/mL, the “Peptide MIC + Vancomycin” value (bacterial isolates; E. faecium EFM007) was 16 µg/mL and the “Peptide MIC Alone” value (bacterial isolates; E. faecium EFM007) was 64 µg/mL. The “Vancomycin MIC + Peptide” value (bacterial isolates; E. faecium EFM007) was 4 µg/mL, the “Peptide MIC + Vancomycin” value (bacterial isolates; E. faecium EFM009) was 8 µg/mL and the “Peptide MIC Alone” value (bacterial isolates; E. faecium EFM009) was 64 µg/mL. The “Vancomycin MIC + Peptide” value (bacterial isolates; E. faecium EFM009) was 4 µg/mL, the “Peptide MIC + Tobramycin” value (bacterial isolates; P. aeruginosa PA026) was 0.125 µg/mL and the “Tobramycin MIC + Peptide” value (bacterial isolates; P. aeruginosa PA026) was 4 µg/mL. The “Peptide MIC Alone” value (bacterial isolates; P. aeruginosa PA026, Tobramycin section) was greater than 128 µg/mL, the “Peptide MIC + Tobramycin” value (bacterial isolates; P. aeruginosa PA032) was 0.5 µg/mL and the “Tobramycin MIC + Peptide” value (bacterial isolates; P. aeruginosa PA032) was 8 µg/mL. The “Peptide MIC Alone” value (bacterial isolates; P. aeruginosa PA032, Tobramycin section) was greater than 128 µg/mL, the “Ciprofloxacin MIC + Peptide” value (bacterial isolates; S. aureus SA10) was 16 µg/mL and the “Peptide MIC + Ciprofloxacin” value (bacterial isolates; S. aureus SA10) was 4 µg/mL. The “Ciprofloxacin MIC + Peptide” value (bacterial isolates; S. aureus SA11) was 32 µg/mL, the “Peptide MIC + Ciprofloxacin” value (bacterial isolates; S. aureus SA11) was 1 µg/mL and the “Peptide MIC + Tobramycin” value (bacterial isolates; [2]) was 8 µg/mL. The “Tobramycin MIC + Peptide” value (bacterial isolates; [2]) was 0.125 µg/mL, the “Peptide MIC Alone” value (bacterial isolates; S. aureus SA014 (also SA014 MRSA), Tobramycin section) was 16 µg/mL and the “Gentamicin MIC + Peptide” value (bacterial isolates; S. aureus SA014 MRSA) was 2 µg/mL. The “Peptide MIC + Gentamicin” value (bacterial isolates; S. aureus SA014 MRSA) was 4 µg/mL, the “Peptide MIC + Tobramycin” value (bacterial isolates; [3]) was 4 µg/mL and the “Tobramycin MIC + Peptide” value (bacterial isolates; [3]) was 0.125 µg/mL. For the same sequence, the “Peptide MIC Alone” value (bacterial isolates; S. aureus SA025 (also SA025 MRSA), Tobramycin section) was 8 µg/mL, the “Gentamicin MIC + Peptide” value (bacterial isolates; S. epidermidis SE074) was 1 µg/mL and the “Peptide MIC + Gentamicin” value (bacterial isolates; S. epidermidis SE074) was 16 µg/mL. For the same sequence, the “Peptide MIC + Tobramycin” value (bacterial isolates; S. haemolyticus SHA001) was 0.125 µg/mL, the “Tobramycin MIC + Peptide” value (bacterial isolates; S. haemolyticus SHA001) was 2 µg/mL and the “Peptide MIC Alone” value (bacterial isolates; S. haemolyticus SHA001, Tobramycin section) was 8 µg/mL. For the same sequence, the “Peptide MIC + Tobramycin” value (bacterial isolates; S. haemolyticus SHA005) was 0.125 µg/mL, the “Tobramycin MIC + Peptide” value (bacterial isolates; S. haemolyticus SHA005) was 4 µg/mL and the “Peptide MIC Alone” value (bacterial isolates; S. haemolyticus SHA005, Tobramycin section) was 16 µg/mL. For the same sequence, the “Gentamicin MIC + Peptide” value (bacterial isolates; S. maltophilia SMA019) was 2 µg/mL, the “Peptide MIC + Gentamicin” value (bacterial isolates; S. maltophilia SMA019) was 16 µg/mL and the “Gentamicin MIC + Peptide” value (bacterial isolates; S. maltophilia SMA020) was 2 µg/mL. The “Peptide MIC + Gentamicin” value (bacterial isolates; S. maltophilia SMA020) was 16 µg/mL, the “Peptide MIC + Tobramycin” value (bacterial isolates; S. maltophilia SMA029) was 32 µg/mL and the “Tobramycin MIC + Peptide” value (bacterial isolates; S. maltophilia SMA029) was 4 µg/mL. For the same sequence, the “Peptide MIC Alone” value (bacterial isolates; S. maltophilia SMA029, Tobramycin section) was greater than 128 µg/mL, the “Peptide MIC + Tobramycin” value (bacterial isolates; S. maltophilia SMA030) was 64 µg/mL and the “Tobramycin MIC + Peptide” value (bacterial isolates; S. maltophilia SMA030) was 2 µg/mL. The “Peptide MIC Alone” value (bacterial isolates; S. maltophilia SMA030, Tobramycin section) was greater than 128 µg/mL, the FIC (bacterial isolates; peptide + Ciprofloxacin, S. aureus SA10) was 0.53 and the FIC (bacterial isolates; peptide + Ciprofloxacin, S. aureus SA11) was 0.50. The FIC (bacterial isolates; peptide + Gentamicin, E. faecium EFM004) was 0.28, the FIC (bacterial isolates; peptide + Gentamicin, S. aureus SA014 MRSA) was 0.56 and the FIC (bacterial isolates; peptide + Gentamicin, S. epidermidis SE074) was 0.51. The FIC (bacterial isolates; peptide + Gentamicin, S. maltophilia SMA019) was 0.31, the FIC (bacterial isolates; peptide + Gentamicin, S. maltophilia SMA020) was 0.31 and the FIC (bacterial isolates; peptide + Mupirocin, E. coli ECO1) was 0.14. It also gave an FIC (bacterial isolates; peptide + Mupirocin, E. coli SBECO2) of 0.05, an FIC (bacterial isolates; peptide + Tobramycin, P. aeruginosa PA026) of 0.50 and an FIC (bacterial isolates; peptide + Tobramycin, P. aeruginosa PA032) of 0.50. It also gave an FIC (bacterial isolates; peptide + Tobramycin, S. aureus SA014 (also SA014 MRSA)) of 0.50, an FIC (bacterial isolates; peptide + Tobramycin, S. aureus SA025 (also SA025 MRSA)) of 0.50 and an FIC (bacterial isolates; peptide + Tobramycin, S. haemolyticus SHA001) of 0.52. For the same sequence, the FIC (bacterial isolates; peptide + Tobramycin, S. haemolyticus SHA005) was 0.51, the FIC (bacterial isolates; peptide + Tobramycin, S. maltophilia SMA029) was 0.16 and the FIC (bacterial isolates; peptide + Tobramycin, S. maltophilia SMA030) was 0.27. The FIC (bacterial isolates; peptide + Vancomycin, E. faecalis EFS001) was 0.53, the FIC (bacterial isolates; peptide + Vancomycin, E. faecalis EFS006) was 0.50 and the FIC (bacterial isolates; peptide + Vancomycin, E. faecalis EFS007) was 0.50. It also gave an FIC (bacterial isolates; peptide + Vancomycin, E. faecalis EFS010) of 0.27, an FIC (bacterial isolates; peptide + Vancomycin, E. faecalis EFS012) of 0.25 and an FIC (bacterial isolates; peptide + Vancomycin, E. faecalis EFS014) of 0.51. The FIC (bacterial isolates; peptide + Vancomycin, E. faecium EFM004) was 0.50, the FIC (bacterial isolates; peptide + Vancomycin, E. faecium EFM007) was 0.28 and the FIC (bacterial isolates; peptide + Vancomycin, E. faecium EFM009) was 0.25. For the same sequence, the “% Survival” value ([1]; 12 mg/kg ip) was 0%, the “% Survival” value ([1]; 18 mg/kg ip) was 0% and the “% Survival” value ([1]; 24 mg/kg ip) was 0%. For the same sequence, the MIC (E. coli; E. coli ECO002) was 32 µg/mL, the “Peptide MIC values” (E. coli; E. coli ATCC 25922) was 128 µg/mL and the “Peptide MIC values” (E. coli; E. coli ESS) was 16 µg/mL. For the same sequence, the “Peptide MIC values” (E. coli; E. coli NCTC 10418) was 16 µg/mL, the MIC (S. pneumoniae; S. pneumoniae SBSPN2) was greater than 128 µg/mL and the “Peptide MIC values” (S. pneumoniae; S. pneumoniae 406LE8) was greater than 128 µg/mL. The “Peptide MIC values” (S. pneumoniae; S. pneumoniae 60120) was greater than 128 µg/mL, the “Peptide MIC values” (S. pneumoniae; S. pneumoniae ATCC 49619) was greater than 128 µg/mL and the MIC (E. faecium; E. faecium EFM002) was 1 µg/mL. The “Peptide MIC values” (E. faecium; agarose dilution) was 128 µg/mL.
